Assay results: PMC6706930, “A novel oral micellar fenretinide formulation with enhanced bioavailability and antitumour activity against multiple tumours from cancer stem cells” (Journal of Experimental & Clinical Cancer Research : CR, 2019)
Where two headings read alike, the source gives them in different places.

What was measured:
[1] = Plasma pharmacokinetics, acute study (single oral administration); format: in vivo, CD1 female mice; details: for Cmax ±SD / AUC 0-last / HL / Tmax / Cmax / AUC(0-t): plasma analyte; for amount of metabolite in plasma in comparison to 4-HPR: study of multiple doses, after Bio-nFeR administration
Experimental: The experiments were performed in CD1 female mice, 7 weeks of age, (body weight 25 ± 2 g) obtained from Envigo RMS SrL (Udine, Italy). They were maintained under specific-pathogen-free conditions with constant temperature and humidity, according to institutional guidelines regularly checked by a certified veterinarian. Animal experimentation was conducted in conformance with the following laws, regulations, and policies governing the care and use of laboratory animals: Italian Governing Law (D. l. 26/2014; Authorization n.19/2008-A issued March 6, 2008 by the Ministry of Health). Mario Negri Institutional Regulations and Policies providing internal authorizations for persons conducting animal experiments (Quality Management System Certificate –UNI EN ISO 9001:2008 – Reg. N 86121). The experimental protocol was reviewed by the Mario Negri Institute Ethical Committee and approved by the Italian Ministry of Health (Aut. Min. No 489/2016-Pr).
The pharmacokinetics of oral Bio-nFeR was investigated in comparison to that of the reference formulation NCI-FeR, after single administration of multiple doses and after chronic administrations, daily for 2 weeks or bi-daily for 1 week. Bio-nFeR was reconstituted at 20 mg/mL fenretinide to allow the administration of 200 mg/Kg fenretinide that corresponded to the highest dose. The doses of 100, 50 and 10 mg/Kg were administered by using serial dilution of the 20 mg/mL solution.
NCI-FeR prepared, as per the NCI instructions, at 11.6% w:w fenretinide:internal capsule components, was diluted with corn oil to obtain the treatment solutions at the concentrations of 20, 15 and 10 mg/mL, corresponding to the administered doses of 200, 150 and 100 mg/Kg respectively.
The oral pharmacokinetics of Bio-nFeR were investigated in four independent groups of 24 mice, randomized to receive different treatment with the following fenretinide equivalent doses: 10, 50, 100 and 200 mg/Kg. The drug was administered by oral gavage and after treatment, blood samples were taken at 15 and 30 min and at 1, 2, 4, 8/10, 24 and 48 h and collected in heparinized tubes from the retro-orbital plexus of the mice under isoflurane anesthesia. Mice were then sacrificed by cervical dislocation and liver, kidney and brain were removed and immediately frozen in dry-ice for future determination. To obtain plasma, blood was centrifuged at 4000 rpm for 10 min at 4 °C. To evaluate fenretinide and metabolites excretion, urine and faeces were collected over a 0–24 h and 24–48 h periods. The collection was performed in three mice per group of treatment, individually housed into metabolic cages for urine and faeces collection. All the biological samples were stored at − 20 °C until analysis. To compare the absorption of Bio-nFeR to NCI-FeR and to study the bioavailability, another independent groups of 24 mice were randomized to receive an oral dose of 200 mg/Kg of NCI-FeR. Blood samples were taken at the time reported above. Twenty-four hours fractions of urine and faeces were collected in three mice per group of treatment. Plasma and the other biological specimens were stored at − 20 °C until analysis. Chronic study: the oral pharmacokinetic of Bio-nFeR in comparison with NCI-FeR were also investigated after chronic administrations. Mice were divided in three independent groups, randomized to receive a single treatment of 150 mg/Kg or different repeated treatments of 150 mg/Kg, daily for 2 weeks (12 days on and 2 days off), or 100 mg/Kg bi-daily for 1 week (5 days on 2 days off). Bio-nFeR and NCI-FeR were administered by oral gavage, collecting blood samples at 0.5, 1, 2, 4, 8/10 and 24 h, the day of the single treatment and at 0, 1, 2, 4, 8/10, 24 and 48 h after the last dose of both the chronic treatments. The procedures of blood collection, plasma preparation, sacrifice of mice and storing of samples were as reported in acute study. […]

[2] = stated as known, no reference given; cited from earlier work
[3] = mice, single oral Bio-nFeR 10 mg/kg, Suppl. Table 2 A
[4] = mice, single oral Bio-nFeR 50 mg/kg, Suppl. Table 2 A
[5] = mice, single oral Bio-nFeR 100 mg/kg, Suppl. Table 2 A
[6] = mice, single oral Bio-nFeR 200 mg/kg, Suppl. Table 2 A
[7] = single oral Bio-nFeR 10 mg/kg, Suppl. Table 2 A
[8] = single oral Bio-nFeR 50 mg/kg, Suppl. Table 2 A
[9] = single oral Bio-nFeR 100 mg/kg, Suppl. Table 2 A
[10] = single oral Bio-nFeR 200 mg/kg, Suppl. Table 2 A
[11] = single oral Bio-nFeR, 4-HPR dose 200mg/Kg, Suppl. Table 2 B
[12] = single oral NCI-nFeR, 4-HPR dose 200mg/Kg, Suppl. Table 2 B
[13] = female, CD1, mouse, plasma, po, 200 mg/kg, single oral Bio-nFeR, 4-HPR dose 200mg/Kg, Suppl. Table 2 B
[14] = female, CD1, mouse, plasma, po, 200 mg/kg, single oral NCI-nFeR, 4-HPR dose 200mg/Kg, Suppl. Table 2 B

Cmax ±SD [1, 3] | Cmax ±SD [1, 4] | Cmax ±SD [1, 5] | Cmax ±SD [1, 6] | AUC 0-last [1, 7] | HL [1, 7] | Tmax [1, 7] | AUC 0-last [1, 8] | HL [1, 8] | Tmax [1, 8] | AUC 0-last [1, 9] | HL [1, 9] | Tmax [1, 9] | AUC 0-last [1, 10] | HL [1, 10] | Tmax [1, 10] | AUC 0-last [1, 11] | Cmax ±SD [1, 11] | HL [1, 11] | HL [1, 12] | Compound | further results
120.6 ng/mL | 778.9 ng/mL | 1112.6 ng/mL | 1070.5 ng/mL | 1750.7 ng·h/mL | 9.4 h | 4 h | 9931.5 ng·h/mL | 10.3 h | 4 h | 15439.7 ng·h/mL | 8.6 h | 4 h | 21449.6 ng·h/mL | 11.6 h | 4 h | 21449.6 ng·h/mL | 1070.5 ng/mL | 11.6 h | 9.9 h | COc1ccc(NC(=O)\C=C(C)/C=C/C=C(C)\C=C\C2=C(C)CCCC2(C)C)cc1 [MPR] | Tmax [1, 11]: 4 h; AUC 0-last [1, 12]: 23406.1 ng·h/mL; Cmax ±SD [1, 12]: 1407.0 ng/mL; Tmax [1, 12]: 4 h; amount of metabolite in plasma in comparison to 4-HPR [1]: ~15%; activity of the metabolite [2]: inactive
– | – | – | – | – | 7.5 h | – | – | 7.3 h | – | – | 6.5 h | – | – | 7.2 h | – | – | – | 7.2 h | 6.7 h | CC1=C(/C=C/C(C)=C/C=C/C(C)=C/C(=O)Nc2ccc(O)cc2)C(C)(C)CCC1 [4-HPR, 4-hydroxy (phenyl)retinamide, reference compound] | Cmax ([1]; female, CD1, mouse, plasma, po, 10 mg/kg, mice, single oral Bio-nFeR 10 mg/kg, Suppl. Table 2 A): 601 ng/mL; AUC(0-t) ([1]; female, CD1, mouse, plasma, po, 10 mg/kg, single oral Bio-nFeR 10 mg/kg, Suppl. Table 2 A): 6750 ng·h/mL; Tmax ([1]; female, CD1, mouse, plasma, po, 10 mg/kg, single oral Bio-nFeR 10 mg/kg, Suppl. Table 2 A, read-out: Tmax): 2 h; Cmax ([1]; female, CD1, mouse, plasma, po, 50 mg/kg, mice, single oral Bio-nFeR 50 mg/kg, Suppl. Table 2 A): 3650 ng/mL; AUC(0-t) ([1]; female, CD1, mouse, plasma, po, 50 mg/kg, single oral Bio-nFeR 50 mg/kg, Suppl. Table 2 A): 39200 ng·h/mL; Tmax ([1]; female, CD1, mouse, plasma, po, 50 mg/kg, single oral Bio-nFeR 50 mg/kg, Suppl. Table 2 A, read-out: Tmax): 4 h; Cmax ([1]; female, CD1, mouse, plasma, po, 100 mg/kg, mice, single oral Bio-nFeR 100 mg/kg, Suppl. Table 2 A): 5340 ng/mL; AUC(0-t) ([1]; female, CD1, mouse, plasma, po, 100 mg/kg, single oral Bio-nFeR 100 mg/kg, Suppl. Table 2 A): 66300 ng·h/mL; Tmax ([1]; female, CD1, mouse, plasma, po, 100 mg/kg, single oral Bio-nFeR 100 mg/kg, Suppl. Table 2 A, read-out: Tmax): 4 h; Cmax ([1]; female, CD1, mouse, plasma, po, 200 mg/kg, mice, single oral Bio-nFeR 200 mg/kg, Suppl. Table 2 A): 6840 ng/mL; AUC(0-t) ([1]; female, CD1, mouse, plasma, po, 200 mg/kg, single oral Bio-nFeR 200 mg/kg, Suppl. Table 2 A): 113000 ng·h/mL; Tmax ([1]; female, CD1, mouse, plasma, po, 200 mg/kg, single oral Bio-nFeR 200 mg/kg, Suppl. Table 2 A, read-out: Tmax): 2 h; AUC(0-t) [1, 13]: 113000 ng·h/mL; Cmax [1, 13]: 6840 ng/mL; Tmax ([1]; female, CD1, mouse, plasma, po, 200 mg/kg, single oral Bio-nFeR, 4-HPR dose 200mg/Kg, Suppl. Table 2 B, read-out: Tmax): 2 h; AUC(0-t) [1, 14]: 97900 ng·h/mL; Cmax [1, 14]: 8460 ng/mL; Tmax ([1]; female, CD1, mouse, plasma, po, 200 mg/kg, single oral NCI-nFeR, 4-HPR dose 200mg/Kg, Suppl. Table 2 B, read-out: Tmax): 4 h; half-life ([1]; female, CD1, mouse, plasma, mice, oral Bio-nFeR, different doses, read-out: elimination half-life (converted)): ~7 h
505.1 ng/mL | 2389.1 ng/mL | 3109.1 ng/mL | 4071.2 ng/mL | 4145.3 ng·h/mL | 5.2 h | 2 h | 24372.6 ng·h/mL | 5.4 h | 4 h | 38500.3 ng·h/mL | 4.8 h | 4 h | 58677.2 ng·h/mL | 5.3 h | 4 h | 58677.2 ng·h/mL | 4071.2 ng/mL | 5.3 h | 5.4 h | CC1=C(/C=C/C(C)=C/C=C/C(C)=C/C(=O)Nc2ccc(O)cc2)C(C)(C)CCC1=O [4-oxo-4-HPR] | Tmax [1, 11]: 4 h; AUC 0-last [1, 12]: 39875.4 ng·h/mL; Cmax ±SD [1, 12]: 3372.3 ng/mL; Tmax [1, 12]: 4 h; amount of metabolite in plasma in comparison to 4-HPR [1]: about 50%
